Laboratory results: patent publication US10308644B2, “Heterocyclic compounds as immunomodulators” (Incyte Corporation, priority 2016, dated 2019)

Molecular target: PD-1/PD-L1 (Homo sapiens (Human), UniProt Q9NZQ7)
Assay: PD-1/PD-L1 Homogeneous Time-Resolved Fluorescence (HTRF) Binding Assay
Conditions: recombinant human PD-1 (3 nM) and PD-L1 (10 nM), 25° C., PBS pH 7.4
How it was run: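 Fc-tagged human PD-1 (25-167, 3 nM) and His-tagged PD-L1 (19-238, 10 nM) preincubated with inhibitor 40 min in PBS pH 7.4, 0.05% Tween-20, 0.1% BSA, 1% DMSO, 25 °C. Binding detected by HTRF (Eu anti-IgG/APC anti-His, 665/620 nm) after 60 min; IC50 from percent control activity.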

Sequence of PD-1/PD-L1 (Q9NZQ7 19-238): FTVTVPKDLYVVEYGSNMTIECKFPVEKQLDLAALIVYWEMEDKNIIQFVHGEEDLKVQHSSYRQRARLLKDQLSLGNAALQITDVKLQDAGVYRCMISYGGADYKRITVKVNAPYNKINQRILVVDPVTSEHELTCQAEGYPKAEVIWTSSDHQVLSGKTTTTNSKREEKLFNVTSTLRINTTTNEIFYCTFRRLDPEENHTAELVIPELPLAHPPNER

Row | IC50 [nM] | SMILES
1 | ≤ 10 | Cc1c(Nc2nccc3cc(CNC[C@@H](C)O)cnc23)cccc1-c1cccc(-c2nc3cc(CN4CCC(C(=O)O)CC4)cc(C#N)c3o2)c1C [Example 203, (R)-1-((7-cyano-2-(3′-(3-((2-hydroxypropylamino)methyl)-1,7-naphthyridin-8-ylamino)-2,2′-dimethylbiphenyl-3-yl)benzo[d]oxazol-5-yl)methyl)piperidine-4-carboxylic acid]
2 | ≤ 10 | Cc1c(-c2nc3cc(CN4CC[C@@H](C(=O)O)C4)cc(C#N)c3o2)cccc1-c1cccc(Nc2nccc3cc(CN4CCOC4=O)cnc23)c1Cl [Example 31, (R)-1-((2-(2′-chloro-2-methyl-3′-(3-((2-oxooxazolidin-3-yl)methyl)-1,7-naphthyridin-8-ylamino)biphenyl-3-yl)-7-cyanobenzo[d]oxazol-5-yl)methyl)pyrrolidine-3-carboxylic acid]
3 | ≤ 10 | Cc1c(-c2nc3cc(CN4CC[C@H](C(=O)O)C4)cc(C#N)c3o2)cccc1-c1cccc(Nc2nccc3cc(CN4CC[C@H](O)C4)cnc23)c1Cl [Example 33, (S)-1-((2-(2′-chloro-3′-(3-(((S)-3-hydroxypyrrolidin-1-yl)methyl)-1,7-naphthyridin-8-ylamino)-2-methylbiphenyl-3-yl)-7-cyanobenzo[d]oxazol-5-yl)methyl)pyrrolidine-3-carboxylic acid]
4 | ≤ 10 | Cc1c(Nc2nccc3cc(CN4CC[C@@H](O)C4)cnc23)cccc1-c1cccc(-c2nc3cc(CN4CC5(CC(C(=O)O)C5)C4)cc(C#N)c3o2)c1C [Example 177, 2-((7-cyano-2-(3′-(3-(((R)-3-hydroxypyrrolidin-1-yl)methyl)-1,7-naphthyridin-8-ylamino)-2,2′-dimethylbiphenyl-3-yl)benzo[d]oxazol-5-yl)methyl)-2-azaspiro[3,3]heptane-6-carboxylic acid]
5 | ≤ 10 | Cc1c(-c2nc3cc(CN4CC[C@@H](C(=O)O)C4)cc(C#N)c3o2)cccc1-c1cccc(Nc2nccc3cc(CN4CC[C@H](O)C4)cnc23)c1Cl [Example 30, (R)-1-((2-(2′-chloro-3′-(3-(((S)-3-hydroxypyrrolidin-1-yl)methyl)-1,7-naphthyridin-8-ylamino)-2-methylbiphenyl-3-yl)-7-cyanobenzo[d]oxazol-5-yl)methyl)pyrrolidine-3-carboxylic acid]
6 | ≤ 10 | Cc1c(Nc2nccc3cc(CN4CC[C@](C)(O)C4)cnc23)cccc1-c1cccc(-c2nc3cc(CN4CC[C@@](C)(C(=O)O)C4)cc(C#N)c3o2)c1C [Example 200, (R)-1-((7-cyano-2-(3′-(3-(((S)-3-hydroxy-3-methylpyrrolidin-1-yl)methyl)-1,7-naphthyridin-8-ylamino)-2,2′-dimethylbiphenyl-3-yl)benzo[d]oxazol-5-yl)methyl)-3-methylpyrrolidine-3-carboxylic acid]
7 | ≤ 10 | Cc1c(Nc2nccc3cc(CNC[C@@H](C)O)cnc23)cccc1-c1cccc(-c2nc3cc(CN4CC[C@@H](C(=O)O)C4)cc(C#N)c3o2)c1C [Example 147, (R)-1-((7-cyano-2-(3′-((3-((((R)-2-hydroxypropyl)amino)methyl)-1,7-naphthyridin-8-yl)amino)-2,2′-dimethyl-[1,1′-biphenyl]-3-yl)benzo[d]oxazol-5-yl)methyl)pyrrolidine-3-carboxylic acid]
8 | ≤ 10 | COCC1(C(=O)O)CCN(Cc2cc(C#N)c3oc(-c4cccc(-c5cccc(Nc6nccc7cc(CN8CC[C@@H](O)C8)cnc67)c5C)c4C)nc3c2)C1 (stereo partly drawn) [Example 185, 1-((7-cyano-2-(3′-(3-(((R)-3-hydroxypyrrolidin-1-yl)methyl)-1,7-naphthyridin-8-ylamino)-2,2′-dimethylbiphenyl-3-yl)benzo[d]oxazol-5-yl)methyl)-3-(methoxymethyl)pyrrolidine-3-carboxylic acid]

The remaining lines, values behind:

Row | SMILES | IC50 [nM]
9 | Cc1c(-c2nc3cc(CN4CC[C@@H](C(=O)O)C4)cc(C#N)c3o2)cccc1-c1cccc(-c2nc3c(s2)CNCC3)c1C [Example 72, (R)-1-((7-cyano-2-(2,2′-dimethyl-3′-(4,5,6,7-tetrahydrothiazolo[5,4-c]pyridin-2-yl)biphenyl-3-yl)benzo[d]oxazol-5-yl)methyl)pyrrolidine-3-carboxylic acid] | ≤ 10
10 | Cc1c(-c2nc3cc(CN4CCCC[C@H]4C(=O)O)cc(Cl)c3o2)cccc1-c1cccc(NC(=O)c2ccc(CNCCO)cn2)c1Cl [Example 1, (S)-1-((7-chloro-2-(2′-chloro-3′-(5-(((2-hydroxyethyl)amino)methyl)picolinamido)-2-methyl-[1,1′-biphenyl]-3-yl)benzo[d]oxazol-5-yl)methyl)piperidine-2-carboxylic acid] | ≤ 10
11 | Cc1c(-c2nc3cc(CN4CC[C@@H](C(=O)O)C4)cc(C#N)c3o2)cccc1-c1cccc(-n2cc3c(n2)CN(C(C)C)C3)c1Cl [Example 56, (R)-1-((2-(2′-chloro-3′-(5-isopropyl-5,6-dihydropyrrolo[3,4-c]pyrazol-2(4H)-yl)-2-methylbiphenyl-3-yl)-7-cyanobenzo[d]oxazol-5-yl)methyl)pyrrolidine-3-carboxylic acid] | ≤ 10
12 | Cc1c(-c2nc3cc(CN4CC[C@@](C)(C(=O)O)C4)cc(C#N)c3o2)cccc1-c1cccc(-c2nc3c(s2)CN(C(=O)CN(C)[C@H](C)CO)C3)c1C [Example 225, (R)-1-((7-cyano-2-(3′-(5-(2-(((R)-1-hydroxypropan-2-yl)(methyl)amino)acetyl)-5,6-dihydro-4H-pyrrolo[3,4-d]thiazol-2-yl)-2,2′-dimethylbiphenyl-3-yl)benzo[d]oxazol-5-yl)methyl)-3-methylpyrrolidine-3-carboxylic acid] | ≤ 10
13 | Cc1c(-c2nc3cc(CN4CC[C@@H](C(=O)O)C4)cc(C#N)c3o2)cccc1-c1cccc(-c2nc3c(s2)CN(C(=O)CN2CCN(C)CC2)C3)c1C [Example 108, (R)-1-((7-cyano-2-(2,2′-dimethyl-3′-(5-(2-(4-methylpiperazin-1-yl)acetyl)-5,6-dihydro-4H-pyrrolo[3,4-d]thiazol-2-yl)biphenyl-3-yl)benzo[d]oxazol-5-yl)methyl)pyrrolidine-3-carboxylic acid] | ≤ 10
14 | Cc1c(-c2nc3cc(CN4CC[C@@H](O)C4)cc(C#N)c3o2)cccc1-c1cccc(NC(=O)c2nc3c(n2C)CCN(C[C@H]2CC[C@@H](C(=O)O)CC2)C3)c1Cl [Example 266, cis-4-((2-(2-chloro-3′-(7-cyano-5-(((R)-3-hydroxypyrrolidin-1-yl)methyl)benzo[d]oxazol-2-yl)-2′-methylbiphenyl-3-ylcarbamoyl)-1-methyl-6,7-dihydro-1H-imidazo[4,5-c]pyridin-5(4H)-yl)methyl)cyclohexane carboxylic acid] | ≤ 10
15 | CCN1CCc2c(nc(C(=O)Nc3cccc(-c4cccc(-c5nc6cc(CN7CC[C@H](C(=O)O)C7)cc(C#N)c6o5)c4C)c3Cl)n2C)C1 [Example 142, (S)-1-((2-(2′-chloro-3′-(5-ethyl-1-methyl-4,5,6,7-tetrahydro-1H-imidazo[4,5-c]pyridine-2-carboxamido)-2-methyl-[1,1′-biphenyl]-3-yl)-7-cyanobenzo[d]oxazol-5-yl)methyl)pyrrolidine-3-carboxylic acid] | ≤ 10
16 | Cc1c(-c2nc3c(o2)CCNC3)cccc1-c1cccc(-c2nc3cc(CN4CC[C@H](C(=O)O)C4)cc(Cl)c3o2)c1C [Example 76, (S)-1-((7-chloro-2-(2,2′-dimethyl-3′-(4,5,6,7-tetrahydrooxazolo[4,5-c]pyridin-2-yl)-[1,1′-biphenyl]-3-yl)benzo[d]oxazol-5-yl)methyl)pyrrolidine-3-carboxylic acid] | ≤ 10
